Assay results: US20120034193A1, “TREATMENT OF NEUROTROPHIC FACTOR MEDIATED DISORDERS” (priority 2009, published 2012)

Experiments:
Serotonin 5-HT1 = experiment: Receptor binding assay; set-up: species or system Rat; details: sarsasapogenin 10 μM
Experimental: (§1) The receptor binding was investigated using the following method: Sarsasapogenin was incubated with tissue or cell homogenate that expressed the receptor of interest and a known concentration a radiolabelled compound with affinity for the receptor of interest. After the incubation period the non-bound radiolabelled compound was removed and the amount of specific binding was quantified. The amount of specific binding in the presence and absence of sarsasapogenin were compared and the percent inhibition of the binding of the radiolabelled compound by sarsasapogenin was calculated. The source of the receptor, the incubation conditions, the radiolabelled compound used varied depending on each specific assay.

[1] = system: Adrenergic β, non selective; experiment: Receptor binding assay; set-up: species or system Rat; details: sarsasapogenin 10 μM
Experimental: as §1

[2] = system: Adrenergic α2, non selective; experiment: Receptor binding assay; set-up: species or system Rat; details: sarsasapogenin 10 μM
Experimental: as §1

Glutamate = experiment: Receptor binding assay; set-up: species or system Rat; details: sarsasapogenin 10 μM
Experimental: as §1

[3] = system: Adrenergic α1, non selective; experiment: Receptor binding assay; set-up: species or system Rat; details: sarsasapogenin 10 μM
Experimental: as §1

GABAA = experiment: Receptor binding assay; set-up: species or system Rat; details: sarsasapogenin 10 μM
Experimental: as §1

[4] = biological target: 5-Hydroxytryptamine, 5-HT1B (Rattus norvegicus, UniProt P28564); experiment: Binding assay; details: smilagenin 1 μM
Summary of the method: (§2)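 The compound (1 μM) was co-incubated with receptor-bearing tissue or cell homogenate and a fixed, known amount of radiolabelled ligand. After removal of free radioligand, specific binding was measured and expressed as percent inhibition relative to control.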

Prostanoid EP4 = Prostanoid EP4 (Homo sapiens, UniProt P35408); experiment: Binding assay; details: smilagenin 1 μM
Summary of the method: as §2

[5] = biological target: 5-Hydroxytryptamine, 5-HT3 (Homo sapiens, UniProt P46098); experiment: Binding assay; details: smilagenin 1 μM
Summary of the method: as §2

Dopamine D3 = Dopamine D3 (Homo sapiens, UniProt P35462); experiment: Binding assay; details: smilagenin 1 μM
Summary of the method: as §2

Erythropoietin EPOR = biological target: T1, Erythropoietin EPOR (Homo sapiens, UniProt P19235); experiment: Binding assay; details: smilagenin 1 μM
T1 construct: host or cells: tissue or cell homogenate (not specified)
Summary of the method: as §2

Adrenomedullin AM2 = Adrenomedullin AM2 (Homo sapiens, UniProt O60896+Q16602); experiment: Binding assay; details: smilagenin 1 μM
Summary of the method: as §2

Angiotensin AT2 = Angiotensin AT2 (Homo sapiens, UniProt P50052); experiment: Binding assay; details: smilagenin 1 μM
Summary of the method: as §2

Chemokine CCR2B = Chemokine CCR2B (Homo sapiens, UniProt P41597); experiment: Binding assay; details: smilagenin 1 μM
Summary of the method: as §2

[6] = biological target: T2, Vasoactive Intestinal Peptide, VIP1 (Homo sapiens, UniProt P32241); experiment: Binding assay; details: smilagenin 1 μM
T2 construct: host or cells: tissue or cell homogenate, not specified
Summary of the method: as §2

Dopamine D1 = biological target: T3, Dopamine D1 (Homo sapiens, UniProt P21728); experiment: Binding assay; details: smilagenin 1 μM
T3 construct: host or cells: tissue or cell homogenate, not specified
Summary of the method: as §2

Adrenergic α1B = Adrenergic α1B (Rattus norvegicus, UniProt P15823); experiment: Binding assay; details: smilagenin 1 μM
Summary of the method: as §2

[7] = biological target: 5-Hydroxytryptamine, 5-HT1A (Homo sapiens, UniProt P08908); experiment: Binding assay; details: smilagenin 1 μM
Summary of the method: as §2

Functional assay = type: biochemical; details: smilagenin 1 μM
Experimental: (§3) The enzyme activity modulation was investigated using the following method: Sarsasapogenin was incubated with each enzyme plus a specific substrate for each enzyme. After the incubation period the reaction was stopped and the reduction of the specific substrate or the increase in a specific product in the absence and presence of sarsasapogenin was measured and the percent inhibition of the reaction in the presence of sarsasapogenin was calculated. The amount of enzyme used, the incubation conditions, the substrate used and the method of quantification varied depending on each specific assay.
(§4) Using the same methods as described above, the binding of smilagenin (1 μM) to the receptors listed in Table 2 below, and the effect of smilagenin on the activity of the enzymes listed in Table 2 below, were investigated.

[8] = system: Glycine, Strychnine-Sensitive; experiment: Binding assay; set-up: species or system Rat; details: smilagenin 1 μM
[9] = biological target: Nicotinic Acetylcholine α1, Bungarotoxin (Homo sapiens, UniProt P02708+P07510+Q07001); experiment: Binding assay; details: smilagenin 1 μM
[10] = biological target: Protein Serine/Threonine Kinase, CAMK2D (KCC2D) (Homo sapiens, UniProt Q13557); experiment: Functional assay; type: biochemical; details: smilagenin 1 μM
Experimental: as §3, §4

[11] = biological target: Protein Serine/Threonine Kinase, MAPK1 (ERK2) (Homo sapiens, UniProt P28482); experiment: Functional assay; type: biochemical; details: smilagenin 1 μM
Experimental: as §3, §4

[12] = biological target: Protein Serine/Threonine Kinase, MAP2K1 (MEK1 ) (Homo sapiens, UniProt Q02750); experiment: Functional assay; type: biochemical; details: smilagenin 1 μM
Experimental: as §3, §4

GDNF mRNA = GDNF mRNA in rat dopaminergic neurones following exposure to MPP+; type: cell-based; details: 10 μM after MPP+ 2 μM 48 h
Experimental: Rat dopaminergic neurones were prepared using a slightly modified previously described method (Brouard et al., Journal of Neuroscience, 1992, 12, pp. 1409-1415). After 5 days in culture MPP^+ (2 μM), a specific dopaminergic neurotoxin, or vehicle (saline) was added for 48 h. The culture medium was then replaced with fresh medium containing smilagenin (10 μM) or vehicle (DMSO, 0.25%) and the level of GDNF mRNA in the dopaminergic neurones was assessed after 10 min and 2, 24, 48 and 72 h by rt RT-PCR.

BDNF mRNA = BDNF mRNA in rat cortical neurones pre-incubated 48 h then exposed to β-amyloid; type: cell-based; details: 10 μM pre-incubation 48 h
Experimental: Rat cortical neurones were cultured by modification of a method previously described (Eckenstein and Sofroniew, Journal of Neuroscience, 1983, 3, pp. 2286-2291). On day 8, the culture medium was changed to a medium containing vehicle (DMSO, 0.5%) or smilagenin (10 μM). On day 10, rat primary cortical neurones were exposed to β-amyloid (10 μg/ml) for up to 48 h at 37° C. and the level of BDNF mRNA in the cortical neurones was assessed by rt RT-PCR over the following 48 h.

Protein Serine/Threonine Kinase, CAMK2D (KCC2D), sequence (Q13557 whole entry): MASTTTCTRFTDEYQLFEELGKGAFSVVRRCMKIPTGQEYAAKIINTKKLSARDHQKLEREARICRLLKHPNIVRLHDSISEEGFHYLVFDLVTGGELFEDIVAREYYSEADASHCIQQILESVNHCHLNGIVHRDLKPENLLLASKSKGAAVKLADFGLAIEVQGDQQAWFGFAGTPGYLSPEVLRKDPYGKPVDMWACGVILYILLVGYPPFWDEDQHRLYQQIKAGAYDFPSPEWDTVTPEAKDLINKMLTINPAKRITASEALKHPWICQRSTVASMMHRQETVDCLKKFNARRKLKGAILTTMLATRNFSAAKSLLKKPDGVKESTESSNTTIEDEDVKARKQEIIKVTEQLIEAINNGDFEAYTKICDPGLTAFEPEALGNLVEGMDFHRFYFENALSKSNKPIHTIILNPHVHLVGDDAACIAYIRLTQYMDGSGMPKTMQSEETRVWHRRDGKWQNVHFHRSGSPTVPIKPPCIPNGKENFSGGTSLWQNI
Adrenergic α1B, sequence (P15823 whole entry): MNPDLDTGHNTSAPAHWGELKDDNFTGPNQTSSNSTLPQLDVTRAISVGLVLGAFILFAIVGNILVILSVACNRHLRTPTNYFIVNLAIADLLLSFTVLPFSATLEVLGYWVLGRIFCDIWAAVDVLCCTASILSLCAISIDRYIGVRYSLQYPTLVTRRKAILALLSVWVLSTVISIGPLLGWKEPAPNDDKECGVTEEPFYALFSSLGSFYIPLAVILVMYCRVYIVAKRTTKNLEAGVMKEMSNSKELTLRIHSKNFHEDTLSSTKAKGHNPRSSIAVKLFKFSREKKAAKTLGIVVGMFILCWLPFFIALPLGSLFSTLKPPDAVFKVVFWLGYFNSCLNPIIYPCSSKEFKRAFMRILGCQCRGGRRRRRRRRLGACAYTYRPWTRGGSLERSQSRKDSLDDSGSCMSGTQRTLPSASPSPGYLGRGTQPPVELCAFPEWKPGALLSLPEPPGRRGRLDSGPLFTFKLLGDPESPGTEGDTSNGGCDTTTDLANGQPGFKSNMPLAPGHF
5-Hydroxytryptamine, 5-HT1A, sequence (P08908 whole entry): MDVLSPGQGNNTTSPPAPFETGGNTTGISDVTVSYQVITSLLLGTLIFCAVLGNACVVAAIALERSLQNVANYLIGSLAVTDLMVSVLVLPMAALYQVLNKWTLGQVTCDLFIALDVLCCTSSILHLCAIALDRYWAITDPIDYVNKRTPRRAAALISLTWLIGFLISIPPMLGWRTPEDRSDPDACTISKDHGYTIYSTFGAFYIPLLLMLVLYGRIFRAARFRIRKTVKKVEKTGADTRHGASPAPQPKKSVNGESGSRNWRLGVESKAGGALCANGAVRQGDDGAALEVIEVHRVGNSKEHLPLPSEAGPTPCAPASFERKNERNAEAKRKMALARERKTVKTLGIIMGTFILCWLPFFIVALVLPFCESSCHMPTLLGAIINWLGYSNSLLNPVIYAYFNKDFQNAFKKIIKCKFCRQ
T1 sequence (P19235 25-508): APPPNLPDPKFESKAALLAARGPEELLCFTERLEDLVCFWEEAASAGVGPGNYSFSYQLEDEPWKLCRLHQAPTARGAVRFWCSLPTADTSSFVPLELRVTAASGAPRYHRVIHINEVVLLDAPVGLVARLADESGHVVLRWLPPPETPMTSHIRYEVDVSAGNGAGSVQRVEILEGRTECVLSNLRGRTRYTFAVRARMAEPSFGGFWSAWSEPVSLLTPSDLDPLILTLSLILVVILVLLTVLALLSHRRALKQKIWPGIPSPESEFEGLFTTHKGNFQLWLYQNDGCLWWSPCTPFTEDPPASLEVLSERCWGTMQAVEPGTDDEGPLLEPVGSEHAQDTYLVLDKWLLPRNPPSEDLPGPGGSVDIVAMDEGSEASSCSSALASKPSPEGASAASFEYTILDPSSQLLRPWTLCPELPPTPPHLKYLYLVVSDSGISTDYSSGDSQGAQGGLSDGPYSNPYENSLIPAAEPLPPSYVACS
Prostanoid EP4, sequence (P35408 whole entry): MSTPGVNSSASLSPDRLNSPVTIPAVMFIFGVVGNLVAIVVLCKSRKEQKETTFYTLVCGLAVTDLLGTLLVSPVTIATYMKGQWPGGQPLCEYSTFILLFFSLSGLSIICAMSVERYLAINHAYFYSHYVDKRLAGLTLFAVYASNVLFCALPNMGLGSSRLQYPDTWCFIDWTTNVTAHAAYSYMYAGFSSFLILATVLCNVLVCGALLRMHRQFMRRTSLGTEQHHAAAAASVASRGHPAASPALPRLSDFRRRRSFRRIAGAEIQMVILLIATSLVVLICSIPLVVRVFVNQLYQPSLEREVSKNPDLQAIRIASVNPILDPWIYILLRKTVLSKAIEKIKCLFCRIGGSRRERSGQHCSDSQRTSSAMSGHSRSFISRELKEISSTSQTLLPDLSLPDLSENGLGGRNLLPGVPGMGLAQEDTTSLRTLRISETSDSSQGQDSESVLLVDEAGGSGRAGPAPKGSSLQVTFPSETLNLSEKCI
Angiotensin AT2, sequence (P50052 whole entry): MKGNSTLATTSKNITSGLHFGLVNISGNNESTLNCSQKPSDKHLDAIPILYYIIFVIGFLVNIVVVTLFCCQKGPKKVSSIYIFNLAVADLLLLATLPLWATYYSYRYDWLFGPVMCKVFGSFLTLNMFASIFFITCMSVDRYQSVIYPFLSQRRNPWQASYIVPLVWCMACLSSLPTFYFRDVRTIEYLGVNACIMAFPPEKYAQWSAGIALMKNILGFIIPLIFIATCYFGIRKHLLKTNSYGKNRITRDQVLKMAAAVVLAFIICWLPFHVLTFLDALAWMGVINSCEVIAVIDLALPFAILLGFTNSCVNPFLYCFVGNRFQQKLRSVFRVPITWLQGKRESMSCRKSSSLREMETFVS
Adrenomedullin AM2, sequence (Q16602 23-461): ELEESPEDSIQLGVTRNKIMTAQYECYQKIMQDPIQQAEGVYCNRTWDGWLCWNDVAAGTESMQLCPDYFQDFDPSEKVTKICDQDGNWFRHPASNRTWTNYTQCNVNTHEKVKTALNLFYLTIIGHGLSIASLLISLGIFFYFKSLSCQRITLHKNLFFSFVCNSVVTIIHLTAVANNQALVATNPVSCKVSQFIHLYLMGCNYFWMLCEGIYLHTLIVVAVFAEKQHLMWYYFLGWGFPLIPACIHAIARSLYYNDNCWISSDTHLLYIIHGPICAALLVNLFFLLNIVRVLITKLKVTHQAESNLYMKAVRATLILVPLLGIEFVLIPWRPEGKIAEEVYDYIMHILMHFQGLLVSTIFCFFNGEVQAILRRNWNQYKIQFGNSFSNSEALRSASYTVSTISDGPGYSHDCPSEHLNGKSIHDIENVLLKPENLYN
Adrenomedullin AM2, sequence (O60896 24-148 partner): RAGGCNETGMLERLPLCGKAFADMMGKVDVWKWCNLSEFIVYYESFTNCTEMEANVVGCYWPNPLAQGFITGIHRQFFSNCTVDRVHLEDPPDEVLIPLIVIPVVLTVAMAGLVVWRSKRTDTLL
Dopamine D3, sequence (P35462 whole entry): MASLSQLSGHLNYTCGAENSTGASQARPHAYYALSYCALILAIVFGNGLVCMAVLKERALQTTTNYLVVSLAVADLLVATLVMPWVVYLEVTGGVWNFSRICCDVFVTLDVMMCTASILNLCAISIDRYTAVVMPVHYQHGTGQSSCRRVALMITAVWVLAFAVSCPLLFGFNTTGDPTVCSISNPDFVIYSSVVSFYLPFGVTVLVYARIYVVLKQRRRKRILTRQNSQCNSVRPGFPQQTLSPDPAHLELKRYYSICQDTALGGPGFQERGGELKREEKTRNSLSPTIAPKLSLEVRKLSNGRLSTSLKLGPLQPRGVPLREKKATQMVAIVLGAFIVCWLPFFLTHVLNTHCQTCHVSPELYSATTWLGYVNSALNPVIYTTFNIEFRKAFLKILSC
Protein Serine/Threonine Kinase, MAP2K1 (MEK1 ), sequence (Q02750 whole entry): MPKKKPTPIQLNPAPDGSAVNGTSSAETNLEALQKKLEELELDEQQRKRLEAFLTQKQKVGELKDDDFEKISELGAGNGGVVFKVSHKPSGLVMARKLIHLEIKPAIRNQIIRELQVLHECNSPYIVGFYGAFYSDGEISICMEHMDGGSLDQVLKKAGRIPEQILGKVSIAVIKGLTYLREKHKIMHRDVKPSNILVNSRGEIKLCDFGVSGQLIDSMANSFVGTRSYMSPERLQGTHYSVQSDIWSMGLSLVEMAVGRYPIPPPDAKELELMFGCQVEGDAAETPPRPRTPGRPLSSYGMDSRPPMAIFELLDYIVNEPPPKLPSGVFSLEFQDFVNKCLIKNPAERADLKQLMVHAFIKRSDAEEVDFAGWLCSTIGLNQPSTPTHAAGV
T2 sequence (P32241 31-457): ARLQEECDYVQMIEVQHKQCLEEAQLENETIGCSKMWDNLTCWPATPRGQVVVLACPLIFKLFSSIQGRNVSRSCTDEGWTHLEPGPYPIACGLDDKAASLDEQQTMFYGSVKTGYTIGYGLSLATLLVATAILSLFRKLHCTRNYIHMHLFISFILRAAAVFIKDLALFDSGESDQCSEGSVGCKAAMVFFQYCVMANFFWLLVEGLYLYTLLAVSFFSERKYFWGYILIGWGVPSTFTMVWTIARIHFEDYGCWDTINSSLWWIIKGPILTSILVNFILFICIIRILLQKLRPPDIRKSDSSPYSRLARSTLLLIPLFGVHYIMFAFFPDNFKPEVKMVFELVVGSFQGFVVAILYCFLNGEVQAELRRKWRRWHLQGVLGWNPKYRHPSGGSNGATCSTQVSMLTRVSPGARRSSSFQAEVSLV
Chemokine CCR2B, sequence (P41597 1-360 isoform P41597-2): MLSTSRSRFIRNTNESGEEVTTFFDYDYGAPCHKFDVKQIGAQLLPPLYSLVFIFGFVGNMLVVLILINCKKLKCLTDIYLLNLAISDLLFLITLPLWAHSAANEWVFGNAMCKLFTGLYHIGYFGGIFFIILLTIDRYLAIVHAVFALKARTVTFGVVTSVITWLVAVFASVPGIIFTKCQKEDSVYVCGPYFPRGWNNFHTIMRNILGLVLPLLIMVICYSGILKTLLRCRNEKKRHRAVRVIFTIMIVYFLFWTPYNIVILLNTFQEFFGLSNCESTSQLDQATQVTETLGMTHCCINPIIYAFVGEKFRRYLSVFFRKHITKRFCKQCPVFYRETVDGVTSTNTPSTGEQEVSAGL

SMILES: C[C@H]1CC[C@@]2(OC1)O[C@H]1C[C@H]3[C@@H]4CC[C@@H]5C[C@@H](O)CC[C@]5(C)[C@H]4CC[C@]3(C)[C@H]1[C@@H]2C [Sarsasapogenin, sarsasapogenin]
- Effect (%) (Serotonin 5-HT1): NS (NS = No significant response. Significance was taken as ≧30% stimulation or inhibition)
- Effect (%) [1]: NS (NS = No significant response. Significance was taken as ≧30% stimulation or inhibition)
- Effect (%) [2]: NS (NS = No significant response. Significance was taken as ≧30% stimulation or inhibition)
- Effect (%) (Glutamate): NS (NS = No significant response. Significance was taken as ≧30% stimulation or inhibition)
- Effect (%) [3]: NS (NS = No significant response. Significance was taken as ≧30% stimulation or inhibition)
- Effect (%) (GABAA): NS (NS = No significant response. Significance was taken as ≧30% stimulation or inhibition)

SMILES: C[C@@H]1CC[C@@]2(OC1)O[C@H]1C[C@H]3[C@@H]4CC[C@@H]5C[C@@H](O)CC[C@]5(C)[C@H]4CC[C@]3(C)[C@H]1[C@@H]2C [Smilagenin, smilagenin]
- Effect (%) [4]: NS (NS = No significant response. Significance was taken as ≧30% stimulation or inhibition)
- Effect (%) (Prostanoid EP4): NS (NS = No significant response. Significance was taken as ≧30% stimulation or inhibition)
- Effect (%) [5]: NS (NS = No significant response. Significance was taken as ≧30% stimulation or inhibition)
- Effect (%) (Dopamine D3): NS (NS = No significant response. Significance was taken as ≧30% stimulation or inhibition)
- Effect (%) (Erythropoietin EPOR): NS (NS = No significant response. Significance was taken as ≧30% stimulation or inhibition)
- Effect (%) (Adrenomedullin AM2): NS (NS = No significant response. Significance was taken as ≧30% stimulation or inhibition)
- Effect (%) (Angiotensin AT2): NS (NS = No significant response. Significance was taken as ≧30% stimulation or inhibition)
- Effect (%) (Chemokine CCR2B): NS (NS = No significant response. Significance was taken as ≧30% stimulation or inhibition)
- Effect (%) [6]: NS (NS = No significant response. Significance was taken as ≧30% stimulation or inhibition)
- Effect (%) (Dopamine D1): NS (NS = No significant response. Significance was taken as ≧30% stimulation or inhibition)
- Effect (%) (Adrenergic α1B): NS (NS = No significant response. Significance was taken as ≧30% stimulation or inhibition)
- Effect (%) [7]: NS (NS = No significant response. Significance was taken as ≧30% stimulation or inhibition)
- Effect (%) (Functional assay): NS (NS = No significant response. Significance was taken as ≧30% stimulation or inhibition)
- Effect (%) [8]: NS (NS = No significant response. Significance was taken as ≧30% stimulation or inhibition)
- Effect (%) [9]: NS (NS = No significant response. Significance was taken as ≧30% stimulation or inhibition)
- Effect (%) [10]: NS (NS = No significant response. Significance was taken as ≧30% stimulation or inhibition)
- Effect (%) [11]: NS (NS = No significant response. Significance was taken as ≧30% stimulation or inhibition)
- Effect (%) [12]: NS (NS = No significant response. Significance was taken as ≧30% stimulation or inhibition)
- Relative amount of GDNF mRNA (% of control at 0.167 h) (GDNF mRNA; smilagenin exposure 0.167 h): 119.9 ± 19.8 % of control at 0.167 h
- Relative amount of GDNF mRNA (% of control at 0.167 h) (GDNF mRNA; smilagenin exposure 2 h): 581.6 ± 66.3 % of control at 0.167 h
- Relative amount of GDNF mRNA (% of control at 0.167 h) (GDNF mRNA; smilagenin exposure 24 h): 3319.1 ± 830.3 % of control at 0.167 h
- Relative amount of GDNF mRNA (% of control at 0.167 h) (GDNF mRNA; smilagenin exposure 48 h): 2185.3 ± 304.1 % of control at 0.167 h
- Relative amount of GDNF mRNA (% of control at 0.167 h) (GDNF mRNA; smilagenin exposure 72 h): 1413.5 ± 352.1 % of control at 0.167 h
- Relative amount of BDNF mRNA (% of control at 0 h) (BDNF mRNA; β-amyloid 10 μg/ml exposure 6 h): 108.0 ± 5.2 % of control at 0 h
- Relative amount of BDNF mRNA (% of control at 0 h) (BDNF mRNA; β-amyloid 10 μg/ml exposure 24 h): 321.5 ± 54.2 % of control at 0 h
- Relative amount of BDNF mRNA (% of control at 0 h) (BDNF mRNA; β-amyloid 10 μg/ml exposure 48 h): 334.6 ± 48.1 % of control at 0 h
